Values of other authors, collected in patent US11419828B2, “Hair care terpinen 4-ol (T4O) composition for the treatment of demodex mites on scalp” (priority 2021, dated 2022).

What was measured:
Demodex mites = conditions: 75% alcohol, 10% povidone-iodine, erythromycin
Demodex = conditions: 38% concentration of terpinen-4-ol, over a period of 4 weeks
[1] = at levels up to 75%

Compound	Demodex mites' resistance to antiseptic agent (Demodex mites)	also measured
CC[C@H]1OC(=O)[C@H](C)[C@@H](O[C@H]2C[C@@](C)(OC)[C@@H](O)[C@H](C)O2)[C@H](C)[C@@H](O[C@@H]2O[C@H](C)C[C@H](N(C)C)[C@H]2O)[C@](C)(O)C[C@@H](C)C(=O)[C@H](C)[C@@H](O)[C@]1(C)O [erythromycin]	resistant	–
CC1=CCC(O)(C(C)C)CC1 (centres unmarked) [terpinen-4-ol, Terpinen-4-ol]	–	reduction of Demodex (Demodex): reduce Demodex effectively
CCO [alcohol]	resistant	–
OCCCO [Propanediol, Propanediol 1,3]	–	potential to irritate or sensitize skin [1]: low potential to irritate or sensitize skin
povidone-iodine	resistant	–
